This note sets out measurements from ChEMBL document CHEMBL1155853, “N-(thiazol-2-yl)-2-thiophene carboxamide derivatives as Abl inhibitors identified by a pharmacophore-based database screening of commercially available compounds” (Bioorg Med Chem Lett, 2008).

Molecules are shown by their SMILES.

The experiment deals with Tyrosine-protein kinase ABL1 (Homo sapiens, UniProt P00519). The experiment can be described thus: Inhibition of Abl kinase by cell free assay.
Tyrosine-protein kinase ABL1, sequence (P00519 whole entry): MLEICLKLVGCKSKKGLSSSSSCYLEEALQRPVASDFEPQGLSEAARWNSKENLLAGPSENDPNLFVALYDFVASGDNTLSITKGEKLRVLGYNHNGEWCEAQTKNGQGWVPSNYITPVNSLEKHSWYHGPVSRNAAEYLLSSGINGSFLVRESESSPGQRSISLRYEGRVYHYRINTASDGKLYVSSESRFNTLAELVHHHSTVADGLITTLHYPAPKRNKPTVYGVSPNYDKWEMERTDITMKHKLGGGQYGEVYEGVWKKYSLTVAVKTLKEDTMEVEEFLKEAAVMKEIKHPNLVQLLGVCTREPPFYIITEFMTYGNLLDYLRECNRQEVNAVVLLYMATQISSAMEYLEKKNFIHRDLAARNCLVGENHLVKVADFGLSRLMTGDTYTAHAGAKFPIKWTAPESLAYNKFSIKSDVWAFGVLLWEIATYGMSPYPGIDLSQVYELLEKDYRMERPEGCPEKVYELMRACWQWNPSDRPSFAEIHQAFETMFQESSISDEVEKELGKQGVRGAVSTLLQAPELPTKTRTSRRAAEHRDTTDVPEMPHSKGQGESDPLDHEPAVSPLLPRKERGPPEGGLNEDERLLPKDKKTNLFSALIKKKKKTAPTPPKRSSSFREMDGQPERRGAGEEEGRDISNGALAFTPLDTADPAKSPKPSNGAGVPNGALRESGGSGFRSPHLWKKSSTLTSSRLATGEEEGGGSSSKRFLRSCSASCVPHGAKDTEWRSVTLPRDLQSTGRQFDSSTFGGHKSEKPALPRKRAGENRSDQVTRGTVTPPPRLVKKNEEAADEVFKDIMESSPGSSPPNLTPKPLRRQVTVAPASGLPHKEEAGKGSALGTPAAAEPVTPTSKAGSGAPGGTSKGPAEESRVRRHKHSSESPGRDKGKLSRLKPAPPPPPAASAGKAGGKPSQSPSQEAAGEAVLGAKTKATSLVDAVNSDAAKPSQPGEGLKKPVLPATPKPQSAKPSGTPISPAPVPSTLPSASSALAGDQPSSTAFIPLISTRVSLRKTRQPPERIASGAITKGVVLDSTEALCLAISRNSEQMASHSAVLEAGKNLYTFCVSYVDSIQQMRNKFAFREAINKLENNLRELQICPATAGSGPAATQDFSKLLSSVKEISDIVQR
For the compound `Cc1cccc(Cc2cnc(NC(=O)c3cccs3)s2)c1`, the affinity corresponds to a Ki of 0.059 µM.

For `O=C(Nc1ncc(Cc2cccc(C(F)(F)F)c2)s1)c1cccs1`, the affinity corresponds to a Ki of 0.136 µM.

For the compound `O=C(Nc1ncc(-c2ccc(Cl)cc2)s1)c1cccs1`, the Ki (as a rule, the equilibrium dissociation constant of an inhibitor or competing ligand from its target) was found to be 0.791 µM.

For the compound `O=C(Nc1ncc(Cc2cc(Cl)ccc2Cl)s1)c1cccs1`, the Ki was determined as 0.05 µM.

For the compound `O=C(Nc1ncc(Cc2ccccc2)s1)c1cccs1`, the affinity, expressed as Ki, was 0.09 µM.

Regarding `O=C(Nc1ncc(Cc2ccccc2Cl)s1)c1cccs1`, the Ki was 0.245 µM.

For `O=C(Nc1ncc(Cc2cc(C(F)(F)F)ccc2Cl)s1)c1cccs1`, the Ki was 0.845 µM.

Consider `COc1ccc(Cc2cnc(NC(=O)c3cccs3)s2)cc1`, for which the affinity, expressed as Ki, was 0.016 µM.

Turning to `COc1ccc2c(c1)Cc1sc(NC(=O)c3cccs3)nc1-2`, affinity was put at a Ki of 0.068 µM.

`O=C(Nc1nnc(Cc2ccccc2)s1)c1cccs1` registered a Ki of 0.36 µM.

`O=C(Nc1ncc(Cc2ccccc2F)s1)c1cccs1` showed a Ki of 0.17 µM.

As for `O=C(Nc1ncc(Cc2ccc(Cl)cc2Cl)s1)c1cccs1`, the Ki worked out at 3.47 µM.

On to `O=C(Nc1ncc(-c2ccc(F)cc2)s1)c1cccs1`, for which the Ki turned out to be 1.65 µM.

In the case of `O=C(Nc1ncc(Cc2cccc(Cl)c2)s1)c1cccs1`, the Ki worked out at 0.097 µM.

On to `O=C(Nc1ncc(Cc2ccc(F)cc2)s1)c1cccs1`, for which the Ki was 0.13 µM.

For `O=C(Nc1nnc(COc2ccccc2)s1)c1cccs1`, affinity was put at a Ki of 0.278 µM.

Regarding `O=C(Nc1ncc(Cc2ccc(Cl)cc2)s1)c1cccs1`, the Ki turned out to be 0.624 µM.

The compound `Cc1ccc(Cc2cnc(NC(=O)c3cccs3)s2)cc1` showed a Ki of 0.249 µM.
